# The source made the active and inactive calls. No cut-off for these calls is given here.
# Tested on: Plasmodium yoelii
# Experiment: Antimalarial activity as reduced parasitaemia against Plasmodium yoelii YM in CD1 mice (Mus musculus) given a single peroral dose
# Format: functional
# Conditions: po
row,Structure (SMILES),ED50 [mg/kg]
1,Cc1[nH]c(C)c(-c2ccc(Oc3ccc(OC(F)(F)F)cc3)cc2)c(=O)c1Br,0.2
2,Cc1[nH]c(C)c(-c2ccc(Oc3ccc(C(F)(F)F)cc3)cc2)c(=O)c1Br,1.1
3,Cc1[nH]c(C)c(-c2ccc(Oc3cccc(C(F)(F)F)c3)cc2)c(=O)c1Cl,0.2
4,Cc1[nH]c(C)c(-c2ccc(Oc3ccc(Cl)cc3)cc2)c(=O)c1Br,5
5,Cc1[nH]c(C)c(-c2ccc(Oc3ccc(OC(F)(F)F)cc3)cc2)c(=O)c1Cl,0.4
6,Cc1[nH]c(C)c(-c2ccc(Oc3cccc(C(F)(F)F)c3)cc2)c(=O)c1Br,3.6

# Tested on: Plasmodium falciparum
# Experiment: Antimalarial activity against Plasmodium falciparum T9-96 infected Rhesus positive human erythrocytes by [3H]hypoxanthine uptake
# Format: functional, organism-based
# Conditions: not given
row,Structure (SMILES),IC50 [nM]
1,Cc1c(Br)c(=O)c(-c2ccc(Oc3ccc(Cl)cc3)cc2)c(C)n1O,450
2,Cc1[nH]c(C)c([C@H]2CC[C@H](c3ccc(Cl)cc3)CC2)c(=O)c1Cl,50
3,O=C1C(O)=C([C@H]2CC[C@H](c3ccc(Cl)cc3)CC2)C(=O)c2ccccc21 [ATOVAQUONE],3
4,Cc1[nH]c(C)c(-c2ccc(Cl)cc2)c(=O)c1Cl,2500
5,Cc1cc(=O)c(-c2ccc(Oc3ccc(Cl)cc3)cc2)c(C)[nH]1,250
6,Cc1nc(C)c(Cl)c(O)c1Cl [CLOPIDOL],20000
7,Cc1[nH]c(C)c(-c2ccc(Oc3cccc(C(F)(F)F)c3)cc2)c(=O)c1Cl,30
8,Cc1[nH]c(C)c(-c2ccc(-c3ccc(Cl)cc3)cc2)c(=O)c1Cl,400
9,CCCCCCCCc1c(C)[nH]c(C)c(Cl)c1=O,4000
10,Cc1cc(=O)c(-c2ccc(Oc3ccc(Cl)cc3)cc2)c(C)n1O,2200
11,Cc1[nH]c(C)c(-c2ccc(Oc3ccc(Cl)cc3)cc2)c(=O)c1Cl,60
12,Cc1cc(=O)c(-c2ccc(Oc3ccc(C(F)(F)F)cc3)cc2)c(C)[nH]1,500
13,Cc1[nH]c(C)c(-c2ccccc2)c(=O)c1Cl,11000
14,Cc1[nH]c(C)c(-c2ccc(Oc3cccc(Cl)c3)cc2)c(=O)c1Cl,30

# More lines, now with the values ahead:
row,IC50 [nM],Structure (SMILES)
1,150,Cc1[nH]c(C)c(-c2ccc(Oc3ccccc3)cc2)c(=O)c1Br
2,30,Cc1[nH]c(C)c(-c2ccc(Oc3ccc(OC(F)(F)F)cc3)cc2)c(=O)c1Br
3,160,Cc1cc(=O)c(-c2ccc(Oc3ccc(OC(F)(F)F)cc3)cc2)c(C)[nH]1
4,60,Cc1[nH]c(C)c(-c2ccc(Oc3ccc(C(F)(F)F)cc3)cc2)c(=O)c1Cl
5,30,Cc1[nH]c(C)c(-c2ccc(Oc3ccc(C(F)(F)F)cc3)cc2)c(=O)c1Br
6,40,Cc1[nH]c(C)c(-c2ccc(Oc3ccc(Cl)cc3)cc2)c(=O)c1Br
7,30,Cc1[nH]c(C)c(-c2ccc(Oc3ccc(OC(F)(F)F)cc3)cc2)c(=O)c1Cl
8,30,Cc1[nH]c(C)c(-c2ccc(Oc3cccc(C(F)(F)F)c3)cc2)c(=O)c1Br
9,30,Cc1[nH]c(C)c(-c2ccc(Oc3cccc(Cl)c3)cc2)c(=O)c1Br
10,40,Cc1[nH]c(C)c(-c2ccc(Oc3ccc(F)cc3)cc2)c(=O)c1Br

# Tested on: Plasmodium yoelii
# Experiment: Antimalarial activity as reduced parasitaemia against Plasmodium yoelii YM in CD1 mice (Mus musculus) after 7 peroral doses over 4 days
# Format: functional
# Conditions: po, 96 h
row,Structure (SMILES),ED50 [mg/kg]
1,Cc1[nH]c(C)c(-c2ccc(Oc3ccccc3)cc2)c(=O)c1Br,4
2,Cc1[nH]c(C)c(-c2ccc(Oc3ccc(OC(F)(F)F)cc3)cc2)c(=O)c1Br,0.3
3,Cc1c(Br)c(=O)c(-c2ccc(Oc3ccc(Cl)cc3)cc2)c(C)n1O,1
4,Cc1cc(=O)c(-c2ccc(Oc3ccc(OC(F)(F)F)cc3)cc2)c(C)[nH]1,> 5
5,Cc1[nH]c(C)c([C@H]2CC[C@H](c3ccc(Cl)cc3)CC2)c(=O)c1Cl,0.6
6,O=C1C(O)=C([C@H]2CC[C@H](c3ccc(Cl)cc3)CC2)C(=O)c2ccccc21 [ATOVAQUONE],0.03
7,Cc1[nH]c(C)c(-c2ccc(Cl)cc2)c(=O)c1Cl,20
8,Cc1[nH]c(C)c(-c2ccc(Oc3ccc(C(F)(F)F)cc3)cc2)c(=O)c1Cl,0.6
9,Cc1cc(=O)c(-c2ccc(Oc3ccc(Cl)cc3)cc2)c(C)[nH]1,2.5
10,Cc1nc(C)c(Cl)c(O)c1Cl [CLOPIDOL],40
11,CCN(CC)CCCC(C)Nc1ccnc2cc(Cl)ccc12 (centres undefined) [CHLOROQUINE],1.8
12,Cc1[nH]c(C)c(-c2ccc(Oc3ccc(C(F)(F)F)cc3)cc2)c(=O)c1Br,0.3
13,Cc1[nH]c(C)c(-c2ccc(Oc3cccc(C(F)(F)F)c3)cc2)c(=O)c1Cl,0.2
14,Cc1[nH]c(C)c(-c2ccc(-c3ccc(Cl)cc3)cc2)c(=O)c1Cl,0.7
15,Cc1[nH]c(C)c(-c2ccc(Oc3ccc(Cl)cc3)cc2)c(=O)c1Br,0.3
16,CCCCCCCCc1c(C)[nH]c(C)c(Cl)c1=O,> 60
17,Cc1cc(=O)c(-c2ccc(Oc3ccc(Cl)cc3)cc2)c(C)n1O,> 1
18,Cc1[nH]c(C)c(-c2ccc(Oc3ccc(Cl)cc3)cc2)c(=O)c1Cl,0.6
19,Cc1cc(=O)c(-c2ccc(Oc3ccc(C(F)(F)F)cc3)cc2)c(C)[nH]1,1.3
20,Cc1[nH]c(C)c(-c2ccc(Oc3ccc(OC(F)(F)F)cc3)cc2)c(=O)c1Cl,0.2
21,Cc1[nH]c(C)c(-c2ccc(Oc3cccc(C(F)(F)F)c3)cc2)c(=O)c1Br,0.6
22,Cc1[nH]c(C)c(-c2ccccc2)c(=O)c1Cl,22
23,Cc1[nH]c(C)c(-c2ccc(Oc3cccc(Cl)c3)cc2)c(=O)c1Br,3.9
24,Cc1[nH]c(C)c(-c2ccc(Oc3cccc(Cl)c3)cc2)c(=O)c1Cl,> 5
25,Cc1[nH]c(C)c(-c2ccc(Oc3ccc(F)cc3)cc2)c(=O)c1Br,0.6

# Tested on: Plasmodium falciparum
# Experiment: Antimalarial activity against Plasmodium falciparum 3D7A infected erythrocytes by [3H]hypoxanthine uptake
# Format: functional, organism-based
# Conditions: not given
row,Structure (SMILES),IC50 [nM]
1,Cc1[nH]c(C)c(-c2ccc(Oc3ccc(OC(F)(F)F)cc3)cc2)c(=O)c1CN1CCCC1,1290
2,O=c1c(-c2ccc(Oc3ccc(OC(F)(F)F)cc3)cc2)c[nH]c(C(F)(F)F)c1Br,> 1000
3,Cc1[nH]c(C)c(-c2ccc(Oc3cccc(C(F)(F)F)c3)cc2)c(=O)c1Cl,5
4,COc1c(C)[nH]c(C)c(-c2ccc(Oc3cccc(C(F)(F)F)c3)cc2)c1=O,300

# The remaining lines, values ahead:
row,IC50 [nM],Structure (SMILES)
1,8,Cc1[nH]c(C)c(-c2ccc(Oc3ccc(OC(F)(F)F)cc3)cc2)c(=O)c1Br
2,160,Cc1cc(=O)c(-c2ccc(Oc3ccc(OC(F)(F)F)cc3)cc2)c(C)[nH]1
3,400,Cc1[nH]c(C)c(-c2ccccc2Oc2ccc(OC(F)(F)F)cc2)c(=O)c1Br
4,30,Cc1[nH]c(C)c(C(F)(F)F)c(=O)c1-c1ccc(Oc2ccc(OC(F)(F)F)cc2)cc1
5,7,Cc1[nH]c(C)c(-c2cccc(Oc3ccc(OC(F)(F)F)cc3)c2)c(=O)c1Br
6,30,Cc1[nH]c(C)c([N+](=O)[O-])c(=O)c1-c1ccc(Oc2ccc(OC(F)(F)F)cc2)cc1
7,> 1000,Cc1[nH]c(C(F)(F)F)c(Br)c(=O)c1-c1ccc(Oc2ccc(OC(F)(F)F)cc2)cc1
8,200,Cc1[nH]cc(-c2ccc(Oc3ccc(OC(F)(F)F)cc3)cc2)c(=O)c1Br
9,5,Cc1[nH]c(C)c(-c2ccc(Oc3ccc(OC(F)(F)F)cc3)cc2)c(=O)c1Cl
10,110,Cc1[nH]cc(Br)c(=O)c1-c1ccc(Oc2ccc(OC(F)(F)F)cc2)cc1

# Tested on: Plasmodium falciparum
# Experiment: Antimalarial activity against Plasmodium falciparum FCR3-A infected erythrocytes as [3H]hypoxanthine incorporation
# Format: functional, organism-based
# Conditions: not given
row,IC50 [nM],Structure (SMILES)
1,2.5,Cc1[nH]c(C)c(-c2ccc(Oc3cccc(C(F)(F)F)c3)cc2)c(=O)c1Cl
2,1,Cc1[nH]c(C)c(-c2ccc(Oc3ccc(OC(F)(F)F)cc3)cc2)c(=O)c1Cl

row,Structure (SMILES),IC50 [nM]
1,O=C1C(O)=C([C@H]2CC[C@H](c3ccc(Cl)cc3)CC2)C(=O)c2ccccc21 [ATOVAQUONE],1360

# Tested on: Plasmodium falciparum
# Experiment: Antimalarial activity as parasite elimination against Plasmodium falciparum infected Aotus monkeys at 10 mg/kg/day for 7 days
# Format: functional, organism-based
# Conditions: not given
row,Structure (SMILES),Activity
1,Cc1[nH]c(C)c(-c2ccc(Oc3ccc(OC(F)(F)F)cc3)cc2)c(=O)c1Br,Active
2,Cc1[nH]c(C)c(-c2ccc(Oc3ccc(OC(F)(F)F)cc3)cc2)c(=O)c1Cl,Active

# Reference: ChEMBL document CHEMBL1150240, “Synthesis and structure-activity relationships of 4-pyridones as potential antimalarials” (J Med Chem, 2008)
